Data: the supplement of paper PMC4862054

What was measured:
Conditions in all cases: 72 h
BT-474 [1] = test system: BT-474
Summary of the method: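 Breast cancer cell lines in 20 µl suspension were seeded onto 384-well plates that already held compound dissolved in 5 µl medium and were incubated for 72 h. Viability was measured by adding 2.5 µl CellTiter-Blue for 2 h at 37 °C and reading fluorescence at 560/590 nm. Each plate was normalised to vehicle and a positive kill control and checked by Z'-factor. EC50 was taken from a fitted percent-inhibition dose-response curve, censored at the highest concentration, and rows with a drug sensitivity score of zero were removed.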

Hs578T [2] = test system: Hs578T
Summary of the method: (§1)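 For viability and cell death testing, 384-well plates carried compound at 5 concentrations in 10-fold steps over a compound-specific 10,000-fold range, and breast cancer cell lines were seeded in 20 µl suspension. After 72 h incubation, cell death was read by CellTox Green fluorescence (485/520 nm) before viability was read by CellTiter-Glo luminescence. EC50 was fitted from the dose-response curves and censored at the top concentration. Normalisation on each plate was to 0.1 % DMSO and a positive kill control.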

MCF-10A [3] = test system: MCF-10A
Summary of the method: as §1

CAL-148 [4] = test system: CAL-148
Summary of the method: as §1

MFM-223 [5] = test system: MFM-223
Summary of the method: as §1

MDA-MB-468 [6] = test system: MDA-MB-468
Summary of the method: as §1

HCC1937 [7] = test system: HCC1937
Summary of the method: as §1

BT-474 [8] = test system: BT-474; remark: listed apart in the source
Summary of the method: as §1

Hs578T [9] = test system: Hs578T; remark: listed apart in the source
Summary of the method: as §1

MCF-10A [10] = test system: MCF-10A; remark: listed apart in the source
Summary of the method: as §1

CAL-148 [11] = test system: CAL-148; remark: listed apart in the source
Summary of the method: as §1

HDQ-P1 [12] = test system: HDQ-P1
Summary of the method: as §1

MFM-223 [13] = test system: MFM-223; remark: listed apart in the source
Summary of the method: as §1

DU-4475 [14] = test system: DU-4475
Summary of the method: as §1

HCC1599 = test system: HCC1599
Summary of the method: as §1

MDA-MB-468 [15] = test system: MDA-MB-468; remark: listed apart in the source
Summary of the method: as §1

MDA-MB-453 = test system: MDA-MB-453
Summary of the method: as §1

MDA-MB-436 [16] = test system: MDA-MB-436
Summary of the method: as §1

CAL-120 [17] = test system: CAL-120
Summary of the method: as §1

CAL-51 = test system: CAL-51
Summary of the method: as §1

HCC1143 [18] = test system: HCC1143
Summary of the method: as §1

CAL-85-1 [19] = test system: CAL-85-1
Summary of the method: as §1

HCC1937 [20] = test system: HCC1937; remark: listed apart in the source
Summary of the method: as §1

BT-549 [21] = test system: BT-549
Summary of the method: as §1

SK-BR-3 = test system: SK-BR-3
Summary of the method: as §1

BT-474 [22] = test system: BT-474; remark: listed apart in the source
Summary of the method: as §1

MDA-MB-231 = test system: MDA-MB-231
Summary of the method: as §1

DU-4475 [23] = test system: DU-4475; remark: listed apart in the source
Summary of the method: as §1

CAL-120 [24] = test system: CAL-120; remark: listed apart in the source
Summary of the method: as §1

CAL-85-1 [25] = test system: CAL-85-1; remark: listed apart in the source
Summary of the method: as §1

HDQ-P1 [26] = test system: HDQ-P1; remark: listed apart in the source
Summary of the method: as §1

HCC1143 [27] = test system: HCC1143; remark: listed apart in the source
Summary of the method: as §1

BT-549 [28] = test system: BT-549; remark: listed apart in the source
Summary of the method: as §1

MDA-MB-436 [29] = test system: MDA-MB-436; remark: listed apart in the source
Summary of the method: as §1

| Compound | EC50, CellTiter-Blue viability (BT-474 [1]) | EC50, CellTox Green (Hs578T [2]) | EC50, CellTox Green (MCF-10A [3]) | EC50, CellTox Green (CAL-148 [4]) | EC50, CellTox Green (MFM-223 [5]) | EC50, CellTox Green (MDA-MB-468 [6]) | EC50, CellTox Green (HCC1937 [7]) | EC50, CellTox Green (BT-474 [8]) | EC50, CellTiter-Glo (Hs578T [9]) | EC50, CellTiter-Glo (MCF-10A [10]) | EC50, CellTiter-Glo (CAL-148 [11]) | EC50, CellTiter-Glo (HDQ-P1 [12]) | EC50, CellTiter-Glo (MFM-223 [13]) | EC50, CellTiter-Glo (DU-4475 [14]) | EC50, CellTiter-Glo (HCC1599) | EC50, CellTiter-Glo (MDA-MB-468 [15]) | EC50, CellTiter-Glo (MDA-MB-453) | EC50, CellTiter-Glo (MDA-MB-436 [16]) | EC50, CellTiter-Glo (CAL-120 [17]) | EC50, CellTiter-Glo (CAL-51) | EC50, CellTiter-Glo (HCC1143 [18]) | EC50, CellTiter-Glo (CAL-85-1 [19]) | EC50, CellTiter-Glo (HCC1937 [20]) | EC50, CellTiter-Glo (BT-549 [21]) | EC50, CellTiter-Glo (SK-BR-3) | EC50, CellTiter-Glo (BT-474 [22]) | EC50, CellTiter-Glo (MDA-MB-231) | EC50, CellTox Green (DU-4475 [23]) | EC50, CellTox Green (CAL-120 [24]) | EC50, CellTox Green (CAL-85-1 [25]) | EC50, CellTox Green (HDQ-P1 [26]) | EC50, CellTox Green (HCC1143 [27]) | EC50, CellTox Green (BT-549 [28]) | EC50, CellTox Green (MDA-MB-436 [29]) |
| --- | --- | --- | --- | --- | --- | --- | --- | --- | --- | --- | --- | --- | --- | --- | --- | --- | --- | --- | --- | --- | --- | --- | --- | --- | --- | --- | --- | --- | --- | --- | --- | --- | --- | --- |
| COc1ncc(-c2ccc3nccc(-c4ccnnc4)c3c2)cc1NS(=O)(=O)c1ccc(F)cc1F | 13.5 nM | 511 nM | 349 nM | 74.7 nM | 22.4 nM | 160 nM | 299 nM | 134 nM | 37.6 nM | 12.9 nM | 76.8 nM | 14.2 nM | 16.2 nM | 228 nM | 13.9 nM | 43 nM | 14.8 nM | 23.8 nM | 27.6 nM | 34.7 nM | 32.5 nM | 15.8 nM | 130 nM | 21.8 nM | 6.82 nM | 19.8 nM | 56.6 nM | – | – | – | – | – | – | – |
| Cn1c(=O)c(F)c(Nc2ccc(I)cc2F)c2c(=O)n(C[C@@H](O)CO)cnc21 [TAK-733] | – | – | – | – | – | – | – | – | – | 3.49 nM | – | 6.97 nM | 371 nM | 7.03 nM | – | 29.8 nM | – | 452 nM | 66.6 nM | 3.04 nM | – | 125 nM | 341 nM | – | – | 33.5 nM | 130 nM | 29.1 nM | > 1000 nM | 181 nM | – | – | – | – |
| CN(c1ccccc1CNc1nc(Nc2ccc3c(c2)CC(=O)N3)ncc1C(F)(F)F)S(C)(=O)=O | – | 1290 nM | 1730 nM | – | – | – | – | – | 4360 nM | 1490 nM | 1880 nM | 1820 nM | 9400 nM | 2130 nM | 4380 nM | 1750 nM | – | 5620 nM | 8760 nM | 1110 nM | 3640 nM | 2450 nM | 6520 nM | 3130 nM | 3190 nM | 2430 nM | 1990 nM | – | – | 4490 nM | 20.9 nM | 72.4 nM | > 10000 nM | – |
| CC(C)C[C@H](NC(=O)[C@H](Cc1ccccc1)NC(=O)c1cnccn1)B(O)O [Bortezomib] | 7.19 nM | 11.7 nM | 210 nM | 17.2 nM | 13 nM | 1.94 nM | 11.3 nM | 32.8 nM | 13.1 nM | 134 nM | 60.1 nM | 12.4 nM | 5.1 nM | 27.1 nM | 97 nM | 2.93 nM | 22.9 nM | 6.1 nM | 16.1 nM | 30 nM | 19 nM | 4.47 nM | 71.2 nM | 3.96 nM | 0.28 nM | 8.94 nM | 13.9 nM | 229 nM | 43.8 nM | 5.02 nM | 15 nM | 165 nM | 49.3 nM | 32.4 nM |
